Patent US7531318B2, “Screening of agents for activity against ischemic myocardial insults” (priority 2004, dated 2009)

How the values were obtained:
[1] = test system: ILK, Akt (serine 473) in C2C12 myoblasts and embryonic heart explants; test: ILK localization/expression and Akt phosphorylation by immunocytochemistry and western blot; type: cell-based
Protocol: (§1) Immunocytochemistry on collagen gel explants. Paraformaldehyde-fixed explants were permeabilized for 10 min at room temperature with Permeabilize solution (10 mM PIPES pH 6.8; 50 mM NaCl, 0.5% Triton X-100, 300 mM sucrose, 3 mM MgCl2) and rinsed with PBS twice for 5 min each at room temperature. After a series of blocking and rinsing steps, detection antibodies were used and explants rinsed and incubated with equilibration buffer (Anti-Fade kit) for 10 min at room temperature. Explants were scooped to a glass microscope slide, covered and examined by fluorescein microscopy. TUNEL assay was performed using ApopTag plus fluorescein in situ apoptosis detection kit (Intergen Company S7111) as recommended.
Because recruitment of ILK to the focal adhesion complex is important for its activation, the inventors assayed the effects of thymosin β4 on ILK localization and expression. […] Because thymosin β4 sequesters the pool of G-actin monomers, the inventors asked whether the effects on ILK activation were dependent on the role of thymosin β4 in regulating the balance between polymerized F-actin and monomeric G-actin.

PINCH = biological target: T1, PINCH (Mus musculus, UniProt Q99JW4); test: Phage display, ELISA and co-immunoprecipitation of thymosin β4 interacting proteins: PINCH; type: binding
T1 construct: Myc or Flag (co-immunoprecipitation part only); expressed in transfected cells; host or cells: Cos and 10T1/2 cells (co-IP); T7Select10-3 phage displaying mouse embryonic heart cDNA (phage display / ELISA)
T1 sequence (Q99JW4 whole entry): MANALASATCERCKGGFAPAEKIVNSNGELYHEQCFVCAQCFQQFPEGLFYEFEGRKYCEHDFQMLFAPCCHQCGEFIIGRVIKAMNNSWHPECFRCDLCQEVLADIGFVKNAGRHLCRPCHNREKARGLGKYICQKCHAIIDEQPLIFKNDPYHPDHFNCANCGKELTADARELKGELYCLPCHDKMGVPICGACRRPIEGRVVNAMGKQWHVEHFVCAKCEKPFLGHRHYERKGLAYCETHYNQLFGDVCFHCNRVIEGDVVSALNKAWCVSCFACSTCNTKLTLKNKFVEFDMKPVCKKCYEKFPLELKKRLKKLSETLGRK
Source text: Embryonic T7 phage display cDNA library and phage biopanning. Equal amounts of messenger RNA were isolated and purified from E9.5-E12.5 mouse embryonic hearts by using Straight A's mRNA Isolation System (Novagen). cDNA was synthesized by using T7Select10-3 OrientExpress cDNA Random Primer Cloning System (Novagen). The vector T7Select10-3 was used to display random-primed cDNA at the C terminus of 5-15 phage 10B coat protein molecules. 10^9 plaque-forming units of the T7 phage embryonic heart library (100× of the complexity) in 500 μl of PBST was applied to a column of Affi-gel bound to thymosin β4 to achieve low-stringency biopanning to identify thymosin β4 interacting partners. See Supplementary Methods for details of phage packaging, phage biopanning and ELISA confirmation.
(§2) Co-immunoprecipitation. Cos and 10T1/2 cells were transfected with thymosin β4, PINCH and/or ILK and lysates precipitated with antibodies to each as previously described (Garg et al., 2003). Western blots were performed using anti-ILK polyclonal antibody (Santa Cruz), anti-thymosin β4 polyclonal antibody (Yu et al., 1993) (gift of H. Yin) and anti-Myc or anti-Flag antibody against tagged versions of PINCH.
Thymosin β4 activates ILK and Akt. […]

[2] = test system: E11.5 cardiac outflow tract explants (myocardial cells); test: Collagen gel migration assay, embryonic heart explant: myocardial cell migration and beating; type: cell-based, mouse
Protocol: Collagen gel migration assay. Outflow tract was dissected from E11.5 wild-type mouse embryos and placed on collagen matrices as previously described (Runyan and Markwald, 1983. After 10 h of attachment explants were incubated in 30 ng per 300 μl thymosin β4 in PBS, PBS alone or thymosin β4 and 100 nM wortmannin. Cultures were carried out for 3-9 days at 37° C. 5% CO2 and fixed in 4% paraformaldehyde in PBS for 10 min at room temperature. Cells were counted for quantification of migration and distance using at least three separate explants under each condition for endothelial migration and eight separate explants for myocardial migration.
as §1
To test the effects of secreted thymosin β4 on cardiac cell migration, the inventors used an embryonic heart explant system designed to assay cell migration and transformation on a collagen gel (Runyan and Markwald, 1983).
To determine whether activation of ILK was necessary for the observed effects of thymosin β4, the inventors used a well-described ILK inhibitor, wortmannin, which inhibits ILK's upstream kinase, phosphatidylinositol-3-OH kinase (PI(3)K) (Delcommenne et al., 1998). Using myocardial cell migration and beating frequency as assays for thymosin β4 activity, the inventors cultured embryonic heart explants as described above in the presence of thymosin β4 with or without wortmannin.

ILK = biological target: T2, ILK (Homo sapiens, UniProt Q13418); test: Co-immunoprecipitation of thymosin β4 with ILK; type: binding
T2 construct: expressed in transfected cells; host or cells: Cos and 10T1/2 cells
T2 sequence (Q13418 1-452): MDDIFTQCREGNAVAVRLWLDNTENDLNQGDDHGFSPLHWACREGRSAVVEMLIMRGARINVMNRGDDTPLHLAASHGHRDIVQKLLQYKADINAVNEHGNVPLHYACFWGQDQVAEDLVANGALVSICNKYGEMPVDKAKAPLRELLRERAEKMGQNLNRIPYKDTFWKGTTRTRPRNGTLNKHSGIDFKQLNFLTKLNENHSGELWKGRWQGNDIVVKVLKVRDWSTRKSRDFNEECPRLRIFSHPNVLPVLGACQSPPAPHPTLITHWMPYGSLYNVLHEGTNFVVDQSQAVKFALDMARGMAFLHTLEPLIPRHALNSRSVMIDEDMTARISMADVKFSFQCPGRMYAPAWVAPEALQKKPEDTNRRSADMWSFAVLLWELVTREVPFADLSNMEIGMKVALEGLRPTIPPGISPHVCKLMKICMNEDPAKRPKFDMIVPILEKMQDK
Protocol: as §2
Thymosin β4 activates ILK and Akt. To investigate the potential mechanisms through which thymosin β4 might be influencing cell migration and survival events, the inventors searched for thymosin β4 interacting proteins. The amino terminus of thymosin β4 was fused with affi-gel beads resulting in exposure of the C-terminus, which allowed identification of previously unknown interacting proteins but prohibited association with actin. The inventors synthesized and screened an E9.5-E12.5 mouse heart T7 phage complementary DNA library by phage display, and thymosin-β4-interacting clones were enriched and confirmed by enzyme-linked immunosorbent assay (ELISA, FIG. 3A). […] PINCH and ILK interact directly with one another and indirectly with the actin cytoskeleton as part of a larger complex involved in cell-extracellular matrix interactions known as the focal adhesion complex. […]

[3] = test system: C57BL/6J mice after ligation of the left anterior descending coronary artery; test: Myocardial infarction by coronary artery ligation: echocardiography, scar, TUNEL; type: in vivo, mouse
Source text: Immunohistochemistry. Embryonic or adult cardiac tissue was embedded in paraffin and sections used for immunohistochemistry. […] Adult hearts were sectioned at ten equivalent levels from the base of the heart to the apex. Serial sections were used for trichrome sections and reaction with muscle actin, c-kit, Sca-1, Abcg2 and BrdU antibodies and for TUNEL assay (Intergen Company S7111).
(§3) Animals and surgical procedures. Myocardial infarction was produced in 58 male C57BL/6J mice at 16 weeks of age (25-30 g) by ligation of the left anterior descending coronary artery as previously described (Garner et al., 2003). All animal protocols were reviewed and approved by the University of Texas Southwestern Medical Center Institutional Animal Care Advisory Committee and were in compliance with the rules governing animal use as published by the NIH. Twenty-nine of the ligated mice received thymosin β4 treatment immediately after ligation and the remaining 29 received PBS injections. Treatment was given intracardiac with thymosin β4 (200 ng in 10 μl collagen) or with 10 μl of collagen; intraperitoneally with thymosin β4 (150 μg in 300 μl PBS) or with 300 μl of PBS; or by both intracardiac and intraperitoneal injections. Intraperitoneal injections were given every 3 days until mice were killed. Doses were based on previous studies of thymosin β4 biodistribution (Mora et al., 1997). Hearts were removed, weighed and fixed for histological sectioning. Additional mice were operated on in a similar fashion for studies 0.5, 1, 3, 6 and 11 days after ligation.
Analysis of cardiac function by echocardiography. Echocardiograms to assess systolic function were performed using M-mode and two-dimensional measurements as described previously (Garner et al., 2003). The measurements represented the average of six selected cardiac cycles from at least two separate scans performed in random-blind fashion with papillary muscles used as a point of reference for consistency in level of scan. End diastole was defined as the maximal left ventricle diastolic dimension and end systole was defined as the peak of posterior wall motion. Single outliers in each group were omitted for statistical analysis. Fractional shortening (FS), a surrogate of systolic function, was calculated from left ventricle dimensions as follows: FS=((EDD−ESD)/EDD)×100%. Ejection fraction (EF) was calculated from two-dimensional images.
Calculation of scar volume. Scar volume was calculated using six sections through the heart of each mouse using Openlab 3.03 software (Improvision) similar to that previously described (Balsam et al., 2004). Percent area of collagen deposition was measured on each section in a blinded fashion and averaged for each mouse.
Statistical analyses. Statistical calculations were performed using a standard t-test of variables with 95% confidence intervals.
Thymosin β4 promotes cell survival after myocardial infarction and improves cardiac function. Because of the effects of thymosin β4 on cardiac cells in vitro, the inventors tested whether thymosin β4 might aid in cardiac repair in vivo after myocardial damage. The inventors created myocardial infarctions in 58 adult mice by coronary artery ligation and treated half with systemic, intracardiac, or systemic plus intracardiac thymosin β4 immediately after ligation and the other half with PBS (FIGS. 4A-E). All 45 mice that survived 2 weeks later were interrogated for cardiac function by random-blind ultrasonography at 2 and 4 weeks after infarction by multiple measurements of cardiac contraction (FIGS. 4A-D).
TUNEL-positive cells that were also myocytes were rare in the thymosin β4 group but abundant in the control hearts. […] Thus, the decreased scar volume and preserved function of thymosin-β4-treated mice were probably due to early preservation of myocardium after infarction through the effects of thymosin β4 on survival of cardiomyocytes.

[4] = test system: ILK, phosphorylated Akt-S 473; test: Western blot on heart lysates after coronary ligation; type: in vivo, mouse
Source text: as §3
Similar to cultured cells, the level of ILK protein was increased in heart lysates of mice treated with thymosin β4 after coronary ligation compared with PBS-treated mice (FIG. 5N).

[5] = test system: rat neonatal cardiomyocytes; test: Primary neonatal cardiomyocyte culture on laminin-coated glass: migration, survival, beating; type: cell-based
Source text: To test the response of postnatal cardiomyocytes, the inventors cultured primary rat neonatal cardiomyocytes on laminin-coated glass and treated the cells with phosphate-buffered saline (PBS) or thymosin β4.
Primary culture of neonatal cardiomyocytes typically survives for approximately 1 to 2 weeks, with some cells beating for up to 2 weeks when grown on laminin-coated slides in our laboratory. […] In addition, the rate of beating was consistently faster in thymosin-β4-treated neonatal cardiomyocytes (95 versus 50 beats per minute, P<0.02), indicating either a change in cell-cell communication or cell metabolism (FIG. 2M; see also Supplementary FIGS. 1A-I and 2A-M).

[6] = compared to control cells, data not shown

## C3 transferase [reference compound]
[1]; COS1 or C2C12 cells, F-actin polymerization inhibited, data not shown
  effect on thymosin β4-induced ILK activation: neither intervention affected the ILK activation

## thymosin β4
PINCH; in the absence of actin, N-terminus fused to affi-gel beads
  interaction with PINCH (phage display, ELISA): interacted
PINCH; transfected cultured cells
  co-precipitation with PINCH: co-precipitated
[2]; E11.5 outflow tract explants on collagen, 30 ng per 300 μl thymosin β4 vs PBS, P<0.0001
  myocardial cell migration away from the explant: large number of spontaneously beating, cardiac muscle actin-positive cells that migrated away from the explant
[2]; [6]
  cell death of migrating cells (TUNEL assay): No significant difference
  proliferative rate of migrating cells (phospho-histone H3 immunostaining): No significant difference
ILK; immunoprecipitation of PINCH, ILK and thymosin β4
  strength of interaction of ILK with thymosin β4 in the common complex: weaker than with PINCH
ILK; transfected cultured cells
  co-precipitation with ILK: co-precipitated
[1]; C2C12 cells
  ILK protein levels (western): modest increase
  total Akt protein: unchanged
[1]; C2C12 cells, phospho-specific antibody
  phosphorylation of Akt at serine 473: increased phosphorylation
[1]; embryonic heart explants or C2C12 myoblasts, synthetic protein 10 ng per 100 μl or expressing plasmid
  ILK detection around the cell edges by immunocytochemistry: markedly enhanced
[3]; 3, 6, 11 or 14 days after coronary ligation, data not shown
  cardiomyocyte proliferation or death: did not detect significant
[3]; 24 h after ligation
  cell death by TUNEL assay in cardiomyocytes: marked decrease
[3]; 24 h after ligation, abundant in control hearts
  TUNEL-positive cells that were also myocytes: rare
[3]; 3 days after infarction, intracardiac treatment, control 44.7±8.4%, P<0.02
  ejection fraction: 64.2±6.69%
[3]; 3 days after infarction, intracardiac treatment, n=4, 95% confidence interval, control 28.8±2.26%, P<0.02
  left ventricle fractional shortening: 39.2±2.34%
[3]; after infarction, EDD and ESD significantly higher in control group
  cardiac dilation (end diastolic and end systolic dimensions): decreased cardiac dilation
[3]; four weeks after coronary ligation, n=23, 95% confidence interval, control 28.2±2.5%, P<0.0001
  mean ejection fraction: 57.7±3.2%
[3]; four weeks after infarction, n=23, 95% confidence intervals, control 23.2±1.2%, P<0.0001
  mean left ventricular fractional shortening: 37.2±1.8%
[3]; six levels of sections through left ventricle, subset of mice, P<0.05
  scar volume: significant reduction
[3]; systemic i.p. 150 μg vs local 200 ng within the infarct
  degree of functional improvement, intraperitoneal versus intracardiac administration: not statistically different
[3]; three levels of section, all treated mice
  size of scar (trichrome stain): reduced
[3]; treated vs untreated hearts, data not shown
  number of c-kit, Sca-1 or Abcg2 positive cardiomyocytes: failed to detect any differences
[3]; trichrome stain
  size of scar, systemic versus local delivery: not different
[3]; versus control, four weeks
  improvement in cardiac fractional shortening: greater than 60%
  improvement in ejection fraction: > 100%
[4]; compared with PBS-treated mice
  level of ILK protein in heart lysates: increased
[4]; phospho-specific antibodies
  amount of phosphorylated Akt-S 473 in heart lysates: elevation
[5]; controls beat for up to 2 weeks
  time for which rhythmically contracting myocytes were visible: up to 28 days
[5]; controls typically survive approximately 1 to 2 weeks
  survival of neonatal cardiomyocytes in primary culture: survived significantly longer
[5]; laminin-coated glass, vs PBS control, P<0.05
  migrational distance of neonatal cardiomyocytes: significantly increased
[5]; versus 50 in control, P<0.02
  rate of beating: 95 beats per minute
